{"source": "patent US4649143A", "about": "“Methods and compositions for treating protozoal infections with a novel antibiotic” (priority 1984, dated 1987)", "key": {"[1]": {"tested_on": "Eimeria acervulina and Eimeria tenella (mixed inoculum)", "experiment": "Anticoccidial evaluation in infected chicks, survival", "assay_type": "in vivo, Eimeria tenella; chicks", "conditions": "for Percent Survival: chicks, 7 days after inoculation", "experimental": "(§1) The poultry diet employed in the test is as follows: The vitamin-amino acid premix in the above feed composition is prepared from the following formulation. The expressions of quantity relate to units per kilogram of the finished feed composition. A mixed inoculum of 5000 sporulated oocysts of Eimeria acervulina and a sufficient number of oocysts of Eimeria tenella to produce 60% to 75% mortality in untreated controls were given to one-day-old chicks, by direct inoculation into the crops of all chicks. The chicks were given free access to feed and water during the entire test period. Two days before inoculation, medicated feed with several levels of drug was presented to the various groups of chicks. Seven days after inoculation, the tests were terminated and the chicks were weighed, necropsied, and their intestinal tracts examined for lesions."}, "Eimeria acervulina": {"tested_on": "Eimeria acervulina", "experiment": "Anticoccidial evaluation in infected chicks, intestinal lesions", "assay_type": "in vivo, Eimeria acervulina; chicks", "conditions": "0.5 ppm to 5.0 ppm in diet", "experimental": "as §1"}, "Eimeria tenella": {"tested_on": "Eimeria tenella", "experiment": "Anticoccidial evaluation in infected chicks, intestinal lesions", "assay_type": "in vivo, Eimeria tenella; chicks", "conditions": "for Percent Chicks with Reduced Lesions E. tenella: 7 days after inoculation", "experimental": "as §1"}, "Solubility in water": {"experiment": "Solubility in water", "assay_type": "physicochemical", "conditions": "compound and its acceptable salts"}, "gram-positive bacteria": {"tested_on": "gram-positive bacteria", "experiment": "In vitro antimicrobial spectrum, summary", "assay_type": "cell-based", "experimental": "(§2) The in vitro antimicrobial spectrum of LL-D42067β was determined by the agar plate dilution method with Mueller-Hinton agar and an inoculum of each test organism of approximately 10^4 colony forming units delivered by the Steers replicating device. The minimal inhibitory concentration (MIC) in mcg/ml was defined as the lowest concentration of LL-D42067β that inhibited visible growth after 18 hours incubation at 35° C."}, "yeasts": {"tested_on": "yeasts", "experiment": "In vitro antimicrobial spectrum, summary", "assay_type": "cell-based", "experimental": "as §2"}, "Enterococcus": {"tested_on": "Enterococcus", "experiment": "In vitro antimicrobial spectrum, agar plate dilution MIC", "assay_type": "cell-based", "conditions": "18 h, 35° C.", "experimental": "as §2"}, "Bacillus cereus": {"tested_on": "Bacillus cereus", "experiment": "In vitro antimicrobial spectrum, agar plate dilution MIC", "assay_type": "cell-based", "conditions": "LL No. 4, Mueller-Hinton agar, 18 hours, 35° C.", "experimental": "as §2"}, "Bacillus subtilis": {"tested_on": "Bacillus subtilis", "experiment": "In vitro antimicrobial spectrum, agar plate dilution MIC", "assay_type": "cell-based", "conditions": "ATCC6633, ATCC 6633, Mueller-Hinton agar, 18 hours, 35° C.", "experimental": "as §2"}, "Streptococcus sanguis": {"tested_on": "Streptococcus sanguis", "experiment": "In vitro antimicrobial spectrum, agar plate dilution MIC", "assay_type": "cell-based", "conditions": "G9B (a), Mueller-Hinton agar, 18 hours, 35° C.", "experimental": "as §2"}, "[2]": {"tested_on": "Staphylococcus epidermidis", "experiment": "In vitro antimicrobial spectrum, agar plate dilution MIC", "assay_type": "cell-based", "conditions": "CMC 83-56, Mueller-Hinton agar, 18 hours, 35° C.", "experimental": "as §2"}, "Streptococcus faecalis": {"tested_on": "Streptococcus faecalis", "experiment": "In vitro antimicrobial spectrum, agar plate dilution MIC", "assay_type": "cell-based", "conditions": "Enterococcus faecalis, ATCC29212; ATCC 29212; Mueller-Hinton agar, 18 hours, 35° C.", "experimental": "as §2"}, "Staphylococcus aureus": {"tested_on": "Staphylococcus aureus", "experiment": "In vitro antimicrobial spectrum, agar plate dilution MIC", "assay_type": "cell-based", "conditions": "18 h, 35° C.", "experimental": "as §2"}, "Micrococcus luteus": {"tested_on": "Micrococcus luteus", "experiment": "In vitro antimicrobial spectrum, agar plate dilution MIC", "assay_type": "cell-based", "conditions": "PC 1001, Mueller-Hinton agar, 18 hours, 35° C.", "experimental": "as §2"}}}
{"smiles": "COc1c2c(c(O)c3c(=O)c4c(oc13)[C@@H](O)CC[C@@H]4O)-c1c3c(c4cc(C)[nH]c(=O)c4c1O)OCO[C@H]3C2", "note": "(relative stereo) [LL-D42067β]", "values": [{"measurement": "survival of infected chicks", "setting": "[1]; 0.5 ppm to 5.0 ppm in diet", "value": "improved survival"}, {"measurement": "Percent Survival", "setting": "[1]; 0.5 ppm in diet", "value": 40, "unit": "%"}, {"measurement": "Percent Survival", "setting": "[1]; 0.75 ppm in diet", "value": 60, "unit": "%"}, {"measurement": "Percent Survival", "setting": "[1]; 1.00 ppm in diet", "value": 80, "unit": "%"}, {"measurement": "Percent Survival", "setting": "[1]; 2.5 ppm in diet", "value": 100, "unit": "%"}, {"measurement": "Percent Survival", "setting": "[1]; 5.0 ppm in diet", "value": 80, "unit": "%"}, {"measurement": "suppression of lesions due to E. acervulina", "setting": "Eimeria acervulina", "value": "significant suppression of lesions"}, {"measurement": "suppression of lesions due to E. tenella", "setting": "Eimeria tenella; 0.5 ppm to 5.0 ppm in diet", "value": "significant suppression of lesions"}, {"measurement": "Percent Chicks with Reduced Lesions E. tenella", "setting": "Eimeria tenella; 0.5 ppm in diet", "value": 0, "unit": "%"}, {"measurement": "Percent Chicks with Reduced Lesions E. tenella", "setting": "Eimeria tenella; 0.75 ppm in diet", "value": 40, "unit": "%"}, {"measurement": "Percent Chicks with Reduced Lesions E. tenella", "setting": "Eimeria tenella; 1.00 ppm in diet", "value": 80, "unit": "%"}, {"measurement": "Percent Chicks with Reduced Lesions E. tenella", "setting": "Eimeria tenella; 2.5 ppm in diet", "value": 100, "unit": "%"}, {"measurement": "Percent Chicks with Reduced Lesions E. tenella", "setting": "Eimeria tenella; 5.0 ppm in diet", "value": 100, "unit": "%"}, {"measurement": "solubility in water", "setting": "Solubility in water", "value": "relatively insoluble in water"}, {"measurement": "activity versus gram-positive bacteria", "setting": "gram-positive bacteria", "value": "active"}, {"measurement": "activity against yeasts", "setting": "yeasts", "value": "moderately active"}, {"measurement": "MIC", "setting": "Enterococcus; OSU 75-1, Mueller-Hinton agar", "value": 1, "unit": "µg/mL"}, {"measurement": "MIC", "setting": "Enterococcus; SM 77-15, Mueller-Hinton agar", "value": 2, "unit": "µg/mL"}, {"measurement": "MIC", "setting": "Bacillus cereus", "value": "≤ 0.06", "unit": "µg/mL"}, {"measurement": "MIC", "setting": "Bacillus subtilis", "value": 4, "unit": "µg/mL"}, {"measurement": "MIC", "setting": "Streptococcus sanguis", "value": 0.5, "unit": "µg/mL"}, {"measurement": "MIC", "setting": "[2]", "value": 0.5, "unit": "µg/mL"}, {"measurement": "MIC", "setting": "Streptococcus faecalis", "value": 1, "unit": "µg/mL"}, {"measurement": "MIC", "setting": "Staphylococcus aureus; LL No. 14, Mueller-Hinton agar", "value": 0.5, "unit": "µg/mL"}, {"measurement": "MIC", "setting": "Staphylococcus aureus; LL No. 27, Mueller-Hinton agar", "value": "≤ 0.06", "unit": "µg/mL"}, {"measurement": "MIC", "setting": "Staphylococcus aureus; Smith, Mueller-Hinton agar", "value": 0.5, "unit": "µg/mL"}, {"measurement": "MIC", "setting": "Micrococcus luteus", "value": "≤ 0.06", "unit": "µg/mL"}]}
